Reference: patent US12458650B2, “Urination disorder-improving agent” (ASKA Pharmaceutical Co., Ltd., priority 2019, dated 2025)

Key:
[1] = tested on: lower urinary tract obstruction model of rats; assay: Test Example 1: urination function in female rat lower urinary tract obstruction model (cystometry, tissue wet weights, survival); format: in vivo; conditions: Group A: 10 mg/kg oral once a day, 2 weeks
Description: A lower urinary tract obstruction model of rats was used as a test system. A test substance was orally administered to the lower urinary tract obstruction model repeatedly over two (2) weeks to examine the action on the urination function in the lower urinary tract obstruction model.
More specifically, the rats (female, Crl:CD(SD), 8-week-old; Charles River Laboratories Japan, Inc.) were operated to form lower urinary tract obstruction and repeatedly received oral administration of the test substance at a frequency of once a day over two (2) weeks. After the completion of the administration, each rat was subjected to bladder catheterization under anesthesia, cystometry under no anesthesia, then cystometry under urethane anesthesia, and euthanasia under deep anesthesia, and the tissues (bladder, kidney) of the rat were extracted or surgically removed. As a normal group, the rats without operation for forming lower urinary tract obstruction were used.
The test system, the test substances, and the dosage are as follows. • Normal group: 0.5 v/v. Polysorbate 80 solution, 10 mL/kg (n=6) • Solvent group (control group): 0.5 v/v % Polysorbate 80 solution, 10 mL/kg (n=15) • Group A: Compound A, 10 mg/kg (n=15) • Group B3: Compound B, 3 mg/kg (n=7) • Group B10: Compound B, 10 mg/kg (n=7)
The residual urine volume, the urination efficiency, and the bladder capacity were measured as follows.
After urination, the residual urine was aspirated from the outlet end of the catheter placed in the bladder to measure the volume (mL) of the residual urine.
After urination, the weight of the voided urine was measured to determine the voided volume (g=mL), and then the urination efficiency was calculated by the following equation: Urination efficiency (%)=[(Voided volume (mL))/(Voided volume (mL)+Residual urine volume (mL))]×100 [Bladder Capacity]
The bladder capacity was calculated from the voided volume and the residual urine volume by the following equation: Bladder capacity(mL)=Voided volume (mL)+Residual urine volume (mL)
Moreover, the wet weight of the extracted bladder and that of the extracted kidney were measured.

[2] = tested on: uterine weight associated with rat deciduoma formation; assay: Test Example 5: antiprogesterone activity, uterine weight associated with rat deciduoma formation in ovariectomized rats; format: in vivo; conditions: 192 h, 8 days, read-out: inhibition rate of uterine weight increase (antiprogesterone action)
Method: For the compound A and the compound D (mifepristone), the antiprogesterone activity was measured. Specifically, a sex hormone and a test substance were repeatedly administered to ovariectomized rats as a test system to examine the antiprogesterone action (antiprogesterone activity) based on, as an index, the fluctuation of the uterine weight (the inhibitory action relative to the increase of the weight) associated with rat deciduoma formation.
More specifically, rats (female, Crl:CD(SD), 5-week-old: Charles River Laboratories Japan, Inc.) were subjected to ovariectomy, and from one (1) week after the ovariectomy, a high dose estrone or 5 μg/one animal was hypodermically administered to the rats once a day for three (3) days. From the day after one day rest period, the rats received, once a day over eight (8) days, hypodermic administration of a low dose estrone (1 μg/one animal), intramuscular administration of progesterone (6 mg/kg), and oral administration of a test substance. In the middle of the administration, on Day 4 of the start of administration, the rats were subjected to a stimulation treatment of decidualization reaction to the right uterus. The day after the final administration, the uterine weight (right uterine body) was measured (n=6). Group E was subjected to ovariectomy and a stimulation treatment of decidualization reaction but was not subjected to a hormone treatment.
The test substances and the dosage in the test system (ovariectomized rats) are as follows. • Group E: rats with ovariectomy without hormone treatment • 0.5 v/v % Polysorbate 80 solution, 10 mL/kg (n=6) • Solvent group (control group): 0.5 v/v % Polysorbate 80 solution, 10 mL/kg (n=6) • Group A3: Compound A, 3 mg/kg (n=6) • Group A10: Compound A, 10 mg/kg (n=6) • Group A30: Compound A, 30 mg/kg (n=6) • Group D: Compound D (mifepristone), 3 mg/kg (n=6)

## CC(=O)O[C@]1(C(C)=O)C[C@@H](O)[C@H]2[C@@H]3C=C(Cl)C4=CC(=O)OC[C@]4(C)[C@H]3CC[C@@]21C [Compound A, 17α-acetoxy-6-chloro-15β-hydroxy-2-oxa-4,6-pregnadiene-3,20-dione]
[1]; FIG. 4
  bladder wet weight: significantly inhibiting the increase
[1]; FIG. 5
  kidney wet weight: significantly inhibiting the increase
[1]; FIG. 6
  survival rate: no decrease
[1]; vs control (solvent) group, FIG. 1
  residual urine volume: significantly decreased
[1]; vs control group, FIG. 2
  urination efficiency: increased
[1]; vs control group, FIG. 3
  bladder capacity: significantly decreased
[2]; Group A3: 3 mg/kg oral once a day, not significant
  inhibition at 3 mg/kg: 15%
[2]; Group A10: 10 mg/kg oral once a day, significant
  inhibition at 10 mg/kg: 63%
[2]; Group A30: 30 mg/kg oral once a day, significant
  inhibition at 30 mg/kg: 83.3%
